Source: PubChem BioAssay (NCI)
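Following 48 hours of exposure in 96-well plates, responses at five concentrations were used to interpolate endpoints linearly. TGI marks complete inhibition of growth.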

Columns and labels:
Assay in all cases: growth of human tumour cells (NCI), 48 h
RPMI-8226 leukemia = system: RPMI-8226 leukemia
COLO 205 colon = system: COLO 205 colon
SK-MEL-2 melanoma = system: SK-MEL-2 melanoma
M19-MEL melanoma = system: M19-MEL melanoma
A549 NSCLC = system: A549 NSCLC
DLD-1 colon = system: DLD-1 colon
UACC-257 melanoma = system: UACC-257 melanoma
SF-295 CNS = system: SF-295 CNS
NCI-H23 lung = system: NCI-H23 lung
ACHN renal = system: ACHN renal
RXF 393 renal = system: RXF 393 renal
UO-31 renal = system: UO-31 renal
MOLT-4 leukemia = system: MOLT-4 leukemia
MDA-MB-231 breast = system: MDA-MB-231 breast
SK-MEL-5 melanoma = system: SK-MEL-5 melanoma
OVCAR-8 ovarian = system: OVCAR-8 ovarian
786-0 renal = system: 786-0 renal
CCRF-CEM leukemia = system: CCRF-CEM leukemia
SW-620 colon = system: SW-620 colon
SF-268 CNS = system: SF-268 CNS
NCI-H460 lung = system: NCI-H460 lung
HT29 colon = system: HT29 colon
SN12C renal = system: SN12C renal
HCT-15 colon = system: HCT-15 colon
LXFL 529 NSCLC = system: LXFL 529 NSCLC
IGROV1 ovarian = system: IGROV1 ovarian
NCI/ADR-RES ovarian = system: NCI/ADR-RES ovarian
DMS 114 small cell lung = system: DMS 114 small cell lung
DMS 273 small cell lung = system: DMS 273 small cell lung
DU-145 prostate = system: DU-145 prostate
T-47D breast = system: T-47D breast
MCF7 breast = system: MCF7 breast
OVCAR-3 ovarian = system: OVCAR-3 ovarian
SNB-19 CNS = system: SNB-19 CNS
HCT-116 colon = system: HCT-116 colon
U251 CNS = system: U251 CNS
HS 578T breast = system: HS 578T breast
TK-10 renal = system: TK-10 renal
MDA-MB-435 = system: MDA-MB-435
MDA-N = system: MDA-N
OVCAR-5 ovarian = system: OVCAR-5 ovarian
SK-MEL-28 melanoma = system: SK-MEL-28 melanoma
KM12 colon = system: KM12 colon
HCC-2998 colon = system: HCC-2998 colon
HOP-92 NSCLC = system: HOP-92 NSCLC
HOP-18 NSCLC = system: HOP-18 NSCLC
HL-60(TB) leukemia = system: HL-60(TB) leukemia
SK-OV-3 ovarian = system: SK-OV-3 ovarian
K-562 leukemia = system: K-562 leukemia
SNB-78 CNS = system: SNB-78 CNS
HOP-62 NSCLC = system: HOP-62 NSCLC
EKVX NSCLC = system: EKVX NSCLC
CAKI-1 renal = system: CAKI-1 renal
SF-539 CNS = system: SF-539 CNS
OVCAR-4 ovarian = system: OVCAR-4 ovarian
XF 498 CNS = system: XF 498 CNS
M14 melanoma = system: M14 melanoma
NCI-H226 lung = system: NCI-H226 lung
MALME-3M melanoma = system: MALME-3M melanoma
SNB-75 CNS = system: SNB-75 CNS
BT-549 breast = system: BT-549 breast
UACC-62 melanoma = system: UACC-62 melanoma
NCI-H522 lung = system: NCI-H522 lung
KM20L2 colon = system: KM20L2 colon
SR leukemia = system: SR leukemia
A498 renal = system: A498 renal
LOX IMVI melanoma = system: LOX IMVI melanoma

SMILES: c1ccc(SCCP(CCP(c2ccccc2)c2ccccc2)c2ccccc2)cc1 (stereo not drawn)
- TGI (RPMI-8226 leukemia): > 66.3 µM
- TGI (COLO 205 colon): 15.8 µM
- TGI (SK-MEL-2 melanoma): 7.52 µM
- TGI (M19-MEL melanoma): > 100 µM
- TGI (A549 NSCLC): > 100 µM
- TGI (DLD-1 colon): > 100 µM
- TGI (UACC-257 melanoma): > 74.7 µM
- TGI (SF-295 CNS): > 100 µM
- TGI (NCI-H23 lung): > 54.1 µM
- TGI (ACHN renal): > 76 µM
- TGI (RXF 393 renal): > 100 µM
- TGI (UO-31 renal): 53.9 µM
- TGI (MOLT-4 leukemia): 81.5 µM
- TGI (MDA-MB-231 breast): > 100 µM
- TGI (SK-MEL-5 melanoma): 33.8 µM
- TGI (OVCAR-8 ovarian): > 100 µM
- TGI (786-0 renal): > 100 µM
- TGI (CCRF-CEM leukemia): > 100 µM
- TGI (SW-620 colon): > 100 µM
- TGI (SF-268 CNS): > 100 µM
- TGI (NCI-H460 lung): > 100 µM
- TGI (HT29 colon): > 100 µM
- TGI (SN12C renal): > 88.6 µM
- TGI (HCT-15 colon): > 100 µM
- TGI (LXFL 529 NSCLC): 23.3 µM
- TGI (IGROV1 ovarian): > 100 µM
- TGI (NCI/ADR-RES ovarian): > 100 µM
- TGI (DMS 114 small cell lung): 33.2 µM
- TGI (DMS 273 small cell lung): 13.6 µM
- TGI (DU-145 prostate): > 100 µM
- TGI (T-47D breast): 79.1 µM
- TGI (MCF7 breast): > 100 µM
- TGI (OVCAR-3 ovarian): 39.9 µM
- TGI (SNB-19 CNS): > 100 µM
- TGI (HCT-116 colon): > 24.3 µM
- TGI (U251 CNS): > 100 µM
- TGI (HS 578T breast): > 100 µM
- TGI (TK-10 renal): > 100 µM
- TGI (MDA-MB-435): > 100 µM
- TGI (MDA-N): > 100 µM
- TGI (OVCAR-5 ovarian): > 100 µM
- TGI (SK-MEL-28 melanoma): > 100 µM
- TGI (KM12 colon): > 51 µM
- TGI (HCC-2998 colon): > 100 µM
- TGI (HOP-92 NSCLC): 15.1 µM
- TGI (HOP-18 NSCLC): 14 µM
- TGI (HL-60(TB) leukemia): > 22.2 µM
- TGI (SK-OV-3 ovarian): > 100 µM
- TGI (K-562 leukemia): > 100 µM
- TGI (SNB-78 CNS): > 100 µM
- TGI (HOP-62 NSCLC): > 100 µM
- TGI (EKVX NSCLC): > 67.5 µM
- TGI (CAKI-1 renal): 63.3 µM
- TGI (SF-539 CNS): > 100 µM
- TGI (OVCAR-4 ovarian): 97.1 µM
- TGI (XF 498 CNS): 8.15 µM
- TGI (M14 melanoma): 43.5 µM
- TGI (NCI-H226 lung): > 87.6 µM
- TGI (MALME-3M melanoma): > 59.1 µM
- TGI (SNB-75 CNS): > 19.6 µM
- TGI (BT-549 breast): 68.7 µM

SMILES: O=C(O/N=C1/CCC/C1=C\c1ccccc1)c1ccc(Cl)cc1
- TGI (RPMI-8226 leukemia): > 100 µM
- TGI (COLO 205 colon): > 100 µM
- TGI (SK-MEL-2 melanoma): > 100 µM
- TGI (M19-MEL melanoma): > 100 µM
- TGI (A549 NSCLC): > 100 µM
- TGI (DLD-1 colon): > 31.6 µM
- TGI (UACC-257 melanoma): > 100 µM
- TGI (SF-295 CNS): > 100 µM
- TGI (NCI-H23 lung): > 95.3 µM
- TGI (ACHN renal): > 100 µM
- TGI (RXF 393 renal): > 31.6 µM
- TGI (UO-31 renal): > 100 µM
- TGI (MOLT-4 leukemia): > 100 µM
- TGI (SK-MEL-5 melanoma): > 100 µM
- TGI (OVCAR-8 ovarian): > 100 µM
- TGI (786-0 renal): > 100 µM
- TGI (CCRF-CEM leukemia): > 100 µM
- TGI (SW-620 colon): > 100 µM
- TGI (SF-268 CNS): > 100 µM
- TGI (NCI-H460 lung): > 31.6 µM
- TGI (HT29 colon): > 100 µM
- TGI (SN12C renal): > 100 µM
- TGI (HCT-15 colon): > 100 µM
- TGI (LXFL 529 NSCLC): > 100 µM
- TGI (IGROV1 ovarian): > 65 µM
- TGI (DMS 273 small cell lung): > 100 µM
- TGI (OVCAR-3 ovarian): > 71.9 µM
- TGI (SNB-19 CNS): > 100 µM
- TGI (HCT-116 colon): > 100 µM
- TGI (U251 CNS): > 89.8 µM
- TGI (UACC-62 melanoma): > 100 µM
- TGI (NCI-H522 lung): > 100 µM
- TGI (TK-10 renal): > 100 µM
- TGI (OVCAR-5 ovarian): > 100 µM
- TGI (KM20L2 colon): > 100 µM
- TGI (SK-MEL-28 melanoma): > 100 µM
- TGI (KM12 colon): > 100 µM
- TGI (HCC-2998 colon): > 100 µM
- TGI (HOP-92 NSCLC): > 100 µM
- TGI (HOP-18 NSCLC): > 100 µM
- TGI (HL-60(TB) leukemia): > 100 µM
- TGI (SK-OV-3 ovarian): > 100 µM
- TGI (K-562 leukemia): > 100 µM
- TGI (SNB-78 CNS): > 100 µM
- TGI (SR leukemia): > 100 µM
- TGI (HOP-62 NSCLC): > 89.6 µM
- TGI (EKVX NSCLC): > 100 µM
- TGI (A498 renal): > 100 µM
- TGI (CAKI-1 renal): > 82.4 µM
- TGI (SF-539 CNS): > 62.2 µM
- TGI (OVCAR-4 ovarian): 58.7 µM
- TGI (XF 498 CNS): > 100 µM
- TGI (M14 melanoma): > 100 µM
- TGI (NCI-H226 lung): > 100 µM
- TGI (MALME-3M melanoma): > 100 µM
- TGI (SNB-75 CNS): 78 µM
- TGI (LOX IMVI melanoma): > 100 µM
